Consider 15 compounds from US20100087432A1, “PYRROLE DERIVATIVES HAVING CRTH2 RECEPTOR ANTAGONIST ACTIVITY” (priority 2004, published 2010).

In experiment [1] the target is T1, human CRTh2 (Homo sapiens, UniProt Q9Y5Y4).
T1 sequence (Q9Y5Y4 1-395): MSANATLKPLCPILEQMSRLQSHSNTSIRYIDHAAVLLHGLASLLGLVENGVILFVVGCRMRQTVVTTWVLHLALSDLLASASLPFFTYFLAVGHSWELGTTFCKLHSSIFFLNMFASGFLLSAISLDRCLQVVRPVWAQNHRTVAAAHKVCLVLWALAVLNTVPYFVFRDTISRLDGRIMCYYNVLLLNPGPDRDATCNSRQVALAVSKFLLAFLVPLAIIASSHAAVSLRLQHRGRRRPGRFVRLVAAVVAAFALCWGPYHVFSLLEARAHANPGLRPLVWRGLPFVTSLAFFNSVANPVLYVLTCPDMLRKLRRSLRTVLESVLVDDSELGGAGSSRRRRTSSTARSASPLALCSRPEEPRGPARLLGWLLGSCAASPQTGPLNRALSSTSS
The experiment can be described thus: Filtration binding assay ([3H]-PGD2 competition on CHO.K1-CRTh2 membranes). As to conditions: [3H]-PGD2 2.5 nM, Cheng-Prussoff. As to the method:
The binding of CRTh2 antagonists is determined using membranes prepared from human CRTh2-expressing Chinese Hamster Ovary cells (CHO.K1-CRTh2). To produce cell membranes CHO.K1-CRTh2 cells cultured in roller bottles are harvested using cell dissociation buffer (Invitrogen). The cells are pelleted by centrifugation (167 g, 5 min). The cell pellet is incubated in hypotonic buffer (15 mM Tris-OH, 2 mM MgCl2, 0.3 mM EDTA, 1 mM EGTA, 1×Complete™ tablet) at 4° C. for 30 minutes. At 4° C. cells are homogenized using a Polytron® (IKA Ultra Turrax T25) for 5 bursts of 1 second. The homogenate is centrifuged (Beckman Optima TM TL Ultracentrifuge, 48000 g, 30 minutes at 4° C.). The supernatant is discarded and the membrane pellet re-suspended in homogenisation buffer (75 mM Tris-OH, 12.5 mM MgCl2, 0.3 mM EDTA, 1 mM EGTA, 250 mM Sucrose, 1×Complete™ tablet. Membrane preparations are aliquoted and stored at […]. The protein content is estimated using Bradford Protein Assay Dye (Bio Rad).
The binding of [^3H]-PGD2 (157 Ci/mmol) to CHO.K1-CRTh2 membranes is determined in the absence (total binding) and presence (non-specific binding) of unlabelled PGD2 (1 μM). Subtraction of the cpm (counts per minute) of [^3H]-PGD2 binding in presence of excess unlabelled PGD2 from that observed in the absence of excess unlabelled PGD2 is defined as specific binding. Active CRTh2 antagonists are able to compete with [^3H]-PGD2 for binding to the CRTh2 receptor and are identified in a decrease in the number of cpm bound.
The assay is performed in Greiner U-bottomed 96 well-plates, in a final volume of 100 μL per well. CHO.K1-CRTh2 membranes were diluted in assay buffer (10 mM HEPES-KOH (pH 7.4), 1 mM EDTA and 10 mM MnCl2) and 10 μg are added to each well [^3H]-PGD2 is diluted in assay buffer and added to each well at a final concentration of 2.5 nM. To determine non-specific binding, [^3H]-PGD2 binding to the CRTh2 receptor is competed with using unlabelled PGD2 at a final well concentration of 1 μM. The experiment is done in triplicate, with reagents added to the wells as follows: • 25 μL assay buffer for total binding or • 25 μL PGD2 to determine non-specific binding • 25 μL [^3H]PGD2 • […] • 25 μL test compound in DMSO/assay buffer
The plates are incubated at room temperature on a shaker for 1 hour, and then harvested (Tomtec Harvester 9600) onto GF/C filter plates using wash buffer (10 mM HEPES-KOH, pH 7.4). The plate is dried for 2 hours, prior to addition of Micro-Scint 20™ (50 μL) and sealing with TopSeal-S™. Plates are then counted using a Packard Top Count instrument, Plates are then read on the Packard Topcount with the 3H Scintillation program (1 min./well).
Ki (dissocation constant for the inhibition) values for the CRTh2 antagonists are reported. Ki values are determined using Sigma Plot™ software, using the Cheng-Prussoff equation.
(§1) where S is the concentration of radioligand and Kd is the dissociation constant. CRTH2 cAMP Functional Assay Protocol

The target of experiment [2] is T1, human CRTh2. Nature of the experiment: CRTH2 cAMP functional assay in CHO.K1-CRTh2 cells. It counts as cell-based. As to conditions: inhibition of PGD2-mediated attenuation of forskolin-induced cAMP accumulation in CHO.K1-CRTh2 cells. As to the method:
as §1
This assay is conducted in CHO.K1-CRTh2 cells. cAMP is generated in the cell by stimulating cells with 5 μM forskolin, an adenylate cyclase activator. PGD2 is added to activate the CRTh2 receptor which results in the attenuation of the forskolin-induced cAMP accumulation. Potential CRTh2 antagonists are tested for their ability to inhibit the PGD2− mediated attenuation of the forskolin-induced cAMP accumulation in CHO.K1-CRTh2 cells.
For each concentration value on the dose-response curve, test compounds are prepared in assay stimulation buffer (HBSS, 5 mM HEPES, 10 μM IBMX ±0.1% human serum albumin) containing DMSO (3% vol/vol) and 5 μL/well is added to an assay plate (384 well white optiplate).
CHO.K1-CRTh2 cultured in tissue culture flasks are washed with PBS and harvested with dissociation buffer. Cells are washed with PBS and re-suspended in stimulation buffer to a concentration of 0.4×10^6/mL and added to the assay plate (10 μL/well).
The assay plate is incubated at room temperature on a shaker for 15 minutes.
A mix of agonist (10 nM Prostaglandin D2) and 5 μM forskolin is prepared in assay stimulation buffer and added to the assay plate (5 μL/well).
In addition, a cAMP standard is serially diluted in assay stimulation buffer and added to separate empty wells on the assay plate (20 μL/well). The cAMP standard allows for the quantification of cAMP generated in CHO.K1-CRTH2 cells.
The assay plate is incubated at room temperature on a shaker for 60 minutes.
Cell lysis buffer (Lysis buffer: Milli-Q H2O, 5 mM HEPES, 0.3% Tween-20, 0.1% human serum albumin) is added to a bead mix (containing Alphascreen™ anti-cAMP acceptor beads 0.06 units/μL, Alphascreen™ streptavidin-coated donor beads 0.06 units/μL, biotinylated cAMP 0.06 units/μL, 10 μM IBMX) is prepared under darkened conditions 60 minutes prior to addition to the assay plate. The resulting lysis mix is added to all wells of the assay plate (40 μL/well).
The assay plate is sealed with Topseal-S™ and incubated in the dark at room temperature on a shaker for 45 minutes. The plate is then counted using a Packard Fusion™ instrument.
The resulting counts per minute are converted to nM cAMP by using the prepared cAMP standard curve. IC50 values (concentration of CRTh2 antagonist required to inhibit 50% of the PGD2-mediated attenuation of forskolin-induced cAMP accumulation in CHO.K1-CRTh2 cells) are then determined using Prism™ software.

In turn, `N#Cc1cn(CC(=O)O)cc1-c1cccc(C(F)(F)F)c1` [Example 12, [3-Cyano-4-(3-trifluoromethyl-phenyl)-pyrrol-1-yl]-acetic acid] showed an inhibitory constant (Ki) on human CRTh2 [1] of 172 nM. The half-maximal inhibitory concentration (IC50) against human CRTh2 [2] worked out at 69 nM.
The matching figures for `N#Cc1cn(CC(=O)O)cc1-c1cccc(Cl)c1` [Example 8, [3-(3-Chloro-phenyl)-4-cyano-pyrrol-1-yl]-acetic acid]: 163 nM and 255 nM.
For `N#Cc1cn(CC(=O)O)cc1-c1cccc2c1OC(F)(F)O2` [Example 3] the same measures were 244 nM and 846 nM.
`CCCCNS(=O)(=O)c1cc(-c2cn(CC(=O)O)cc2C#N)cc(C(F)(F)F)c1` [Example 45, [3-(3-butylsulfamoyl-5-trifluoromethyl-phenyl)-4-cyano-pyrrol-1-yl]-acetic acid] returned a Ki at human CRTh2 [1] of 6 nM. For the same compound, at human CRTh2 [2], half-maximal inhibition (IC50) was put at 16 nM.
`N#Cc1cn(CC(=O)O)cc1-c1cc(C(F)(F)F)ccc1C(F)(F)F` [Example 21, [3-(2,5-Bis-trifluoromethyl-phenyl)-4-cyano-pyrrol-1-yl]-acetic acid] showed a Ki at human CRTh2 [1] of 96 nM. The compound also yielded an IC50 at human CRTh2 [2] of 147 nM.
For `N#Cc1cn(CC(=O)O)cc1-c1cc(C(F)(F)F)cc(S(=O)(=O)N2CCCC2)c1` [Example 42, {3-cyano-4-[3-(pyrrolidine-1-sulfonyl)-5-trifluoromethyl-phenyl]-pyrrol-1-yl}-acetic acid] the same measures were 6 nM and 17 nM.
For `N#Cc1cn(CC(=O)O)cc1-c1cc(Cl)cc(Cl)c1` [Example 2, [3-Cyano-4-(3,5-Dichloro-Phenyl)-Pyrrol-1-yl]-Acetic Acid] the same measures were 34 nM and 57 nM.
For `N#Cc1cn(CC(=O)O)cc1-c1cc(Cl)cc(S(=O)(=O)N2CCCCC2)c1` [Example 53, {3-[3-Chloro-5-(Piperidine-1-Sulfonyl)-Phenyl]-4-Cyano-Pyrrol-1-yl}-Acetic Acid] the same measures were 2 nM and 46 nM.
`N#Cc1cn(CC(=O)O)cc1-c1cc(C(F)(F)F)cc(S(=O)(=O)NC2CCC2)c1` [Example 50, [3-cyano-4-(3-cyclobutylsulfamoyl-5-trifluoromethyl-phenyl)-pyrrol-1-yl]-acetic acid]: on human CRTh2 [1], the affinity corresponds to a Ki of 4 nM. This compound also returned an IC50 against human CRTh2 [2] of 9 nM.
The matching figures for `N#Cc1cn(CC(=O)O)cc1-c1cc(Cl)ccc1Cl` [Example 15, [3-Cyano-4-(2,5-dichloro-phenyl)-pyrrol-1-yl]-acetic acid]: 144 nM and 282 nM.
The matching figures for `N#Cc1cn(CC(=O)O)cc1-c1cc(C(F)(F)F)cc(C(F)(F)F)c1` [Example 1, [3-(3,5-Bis-Trifluoromethyl-Phenyl)-4-Cyano-Pyrrol-1-yl]-Acetic Acid]: 10 nM and 28 nM.
The matching figures for `N#Cc1cn(CC(=O)O)cc1-c1cc(C(F)(F)F)cc(S(=O)(=O)N2CCCCC2)c1` [Example 40, {3-Cyano-4-[3-(Piperidine-1-Sulfonyl)-5-Trifluoromethyl-Phenyl]Pyrrol-1-yl}-Acetic Acid]: 2 nM and 12 nM.
`CN(C)S(=O)(=O)c1cc(-c2cn(CC(=O)O)cc2C#N)cc(C(F)(F)F)c1` [Example 64, [3-Cyano-4-(3-Dimethylsulfamoyl-5-Trifluoromethyl-Phenyl)-Pyrrol-1-yl]-Acetic Acid] displayed a Ki at human CRTh2 [1] of 42 nM. Further, the IC50 against human CRTh2 [2] amounted to 14 nM.
At human CRTh2 [1], `N#Cc1cn(CC(=O)O)cc1-c1cc(C(F)(F)F)cc(Cl)c1F` [Example 25, [3-(3-Chloro-2-fluoro-5-trifluoromethyl-phenyl) -4-cyano-pyrrol-1-yl]-acetic acid] yielded a Ki of 40 nM. The 50% inhibitory concentration (IC50) against human CRTh2 [2] is 25 nM.
The matching figures for `N#Cc1cn(CC(=O)O)cc1-c1cc(C(F)(F)F)ccc1Cl` [Example 17, [3-(2-Chloro-5-trifluoromethyl-phenyl)-4-cyano-pyrrol-1-yl]-acetic acid]: 89 nM and 161 nM.

For orientation: Ki means the equilibrium dissociation constant of an inhibitor or competing ligand from its target. What is called IC50 is the concentration that gives 50% inhibition. A high value points to lower potency.
